Data set [1] addresses T1, human p38 kinase alpha (Homo sapiens, UniProt Q16539).
T1 construct: The coding region of the human p38a cDNA was obtained by PCR-amplification from RNA; made in house; host or cells: E. coli DH10B
Nature of the data set: p38 kinase in vitro assay, PHAS-I phosphorylation (32P-ATP). The settings on record: p38α in vitro results based on PHAS-I assay procedure, read-out: P38α^1. In kind it is biochemical. The procedure: The ability of compounds to inhibit human p38 kinase alpha was evaluated using two in vitro assay methods. In the first method, activated human p38 kinase alpha phosphorylates a biotinylated substrate, PHAS-I (phosphorylated heat and acid stable protein-insulin inducible), in the presence of gamma ^32P-ATP (^32P-ATP). PHAS-I was biotinylated prior to the assay and provides a means of capturing the substrate which is phosphorylated during the assay. p38 Kinase was activated by MKK6. Compounds were tested in 10 fold serial dilutions over the range of 100 μM to 0.001 μM using 1% DMSO. Each concentration of inhibitor was tested in triplicate.
All reactions were carried out in 96 well polypropylene plates. Each reaction well contained 25 mM HEPES pH 7.5, 10 mM magnesium acetate and 50 μM unlabeled ATP. Activation of p38 was required to achieve sufficient signal in the assay. Biotinylated PHAS-I was used at 1-2 μg per 50 μl reaction volume, with a final concentration of 1.5 μM. Activated human p38 kinase alpha was used at 1 μg per 50 μl reaction volume representing a final concentration of 0.3 μM. Gamma ^32P-ATP was used to follow the phosphorylation of PHAS-I. ^32P-ATP has a specific activity of 3000 Ci/mmol and was used at 1.2 μCi per 50 μl reaction volume. The reaction Proceeded either for one hour or overnight at 30° C.
Following incubation, 20 μl of reaction mixture was transferred to a high capacity streptavidin coated filter plate (SAM-streptavidin-matrix, Promega) prewetted with phosphate buffered saline. The transferred reaction mix was allowed to contact the streptavidin membrane of the Promega plate for 1-2 minutes. Following capture of biotinylated PHAS-I with ^32P incorporated, each well was washed to remove unincorporated ^32P-ATP three times with 2M NaCl, three washes of 2M NaCl with 1% phosphoric, three washes of distilled water and finally a single wash of 95% ethanol. Filter plates were air dried and 20 μl of scintillant was added. The plates were sealed and counted.

Data set [2] relates to TNF production by U937 cells. Nature of the data set: LPS stimulation of TNF production by U937 cells. It is filed as cell-based. Conditions: Homo sapiens, U-937, LPS-stimulated TNF-α release, differentiated U937 cells, 4 hour incubation. The procedure: U937 cells (ATCC) were propagated in RPMI 1640 containing 10% Fetal bovine serum, 100 IU/ml penicillin, 100 μg/ml streptomycin, and 2 mM glutamine (Gibco). Fifty million cells in 100 ml media were induced to terminal monocytic differentiation by 24 hour incubation with 20 ng/ml phorbol 12-myristate 13-acetate (Sigma). The cells were washed by centrifugation (200×g for 5 min) and resuspended in 100 ml fresh medium. After 24-48 hours, the cells were harvested, centrifuged, and resuspended in culture medium at 2 million cells/ml.
U937 cells (0.1 ml, 2 million/ml) were incubated with 0.1 ml compound (0.004-50 μM, final concentration) for 1 hour in 96 well microtiter plates. Compounds were prepared as 10 mM stock solutions in DMSO and diluted in culture medium to yield a final DMSO concentration of 0.1% in the cell assay. LPS (E. coli, 100 ng/ml final concentration) was then added at a volume of 0.02 ml. After 4 hour incubation at 37° C., the amount of TNF-α released in the culture medium was quantitated by ELISA. Inhibitory potency is expressed as IC50 (μM).

Data set [3] deals with T1, human p38 kinase alpha. Nature of the data set: p38 kinase in vitro assay, EGFRP phosphorylation (33P-ATP). Conditions: p38α in vitro results based on EGFRP assay procedure, read-out: p38α^2. It is filed as biochemical. On the procedure: A second assay format was also employed that is based on p38 kinase alpha induced phosphorylation of EGFRP (epidermal growth factor receptor peptide, a 21 mer) in the presence of ^33P-ATP. Compounds were tested in 10 fold serial dilutions over the range of 100 μM to 0.001 μM in 1% DMSO. Each concentration of inhibitor was tested in triplicate. Compounds were evaluated in 50 μl reaction volumes in the presence of 25 mM Hepes pH 7.5, 10 mM magnesium acetate, 4% glycerol, 0.4% bovine serum albumin, 0.4 mM DTT, 50 μM unlabeled ATP, 25 μg EGFRP (200 μM), and 0.05 uCi gamma ^33P-ATP. Reactions were initiated by addition of 0.09 μg of activated, purified human GST-p38 kinase alpha. Activation was carried out using GST-MKK6 (5:1,p38:MKK6) for one hour at 30° C. in the presence of 50 μM ATP. Following incubation for 60 minutes at room temperature, the reaction was stopped by addition of 150 μl of AG 1×8 resin in 900 mM sodium formate buffer, pH 3.0 (1 volume resin to 2 volumes buffer). The mixture was mixed three times with pipetting and the resin was allowed to settle. A total of 50 μl of clarified solution head volume was transferred from the reaction wells to Microlite-2 plates. 150 μl of Microscint 40 was then added to each well of the Microlite plate, and the plate was sealed, mixed, and counted.

The subject of a further data set is serum TNF. Nature of the data set: Mouse model of LPS-induced TNF alpha production. It is filed as in vivo, BALB/c female mice. Conditions: percent inhibition of serum TNF, oral gavage 6 hours prior to LPS injection, mice. The procedure: TNF alpha was induced in 10-12 week old BALB/c female mice by tail vein injection with 100 ng lipopolysaccharide (from S. Typhosa) in 0.2 ml saline. One hour later mice were bled from the retroorbital sinus and TNF concentrations in serum from clotted blood were quantified by ELISA. Typically, peak levels of serum TNF ranged from 2-6 ng/ml one hour after LPS injection.
The compounds tested were administered to fasted mice by oral gavage as a suspension in 0.2 ml of 0.5% methylcellulose and 0.025% Tween 20 in water at 1 hour or 6 hours prior to LPS injection. The 1 hour protocol allowed evaluation of compound potency at Cmax plasma levels whereas the 6 hour protocol allowed estimation of compound duration of action. Efficacy was determined at each time point as percent inhibition of serum TNF levels relative to LPS injected mice that received vehicle only.

pIC50: −log10 of the molar value.

The values that follow come from patent US6579873B2, “3 (5)-heteroaryl substituted pyrazoles as p38 kinase inhibitors” (Pharmacia Corporation, priority 1997, dated 2003).

T1 sequence (Q16539 whole entry): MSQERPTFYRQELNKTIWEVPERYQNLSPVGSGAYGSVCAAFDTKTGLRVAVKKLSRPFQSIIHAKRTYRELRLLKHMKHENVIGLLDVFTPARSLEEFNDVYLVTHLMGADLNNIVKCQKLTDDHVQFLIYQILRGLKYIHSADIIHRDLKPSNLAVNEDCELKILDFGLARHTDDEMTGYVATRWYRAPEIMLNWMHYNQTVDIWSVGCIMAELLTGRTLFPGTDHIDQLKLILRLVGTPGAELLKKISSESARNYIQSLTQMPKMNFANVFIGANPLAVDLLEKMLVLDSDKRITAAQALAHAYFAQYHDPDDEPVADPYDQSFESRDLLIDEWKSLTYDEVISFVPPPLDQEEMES

On to “4-(4-fluorophenyl)-3-(4-pyridinyl)-1H-pyrazole-1-ethanol and 4-(4-fluorophenyl)-5-(4-pyridinyl)-1H-pyrazole-1-ethanol [Example 11]”, for which the pIC50 on human p38 kinase alpha [1] was 6.16.
For “4-(4-fluorophenyl)-N,N-dimethyl-3-(4-pyridinyl)-1H-pyrazole-1-ethanamine and 4-(4fluorophenyl)-N,N-dimethyl-5-(4-pyridinyl)-1H-pyrazole-1-ethanamine [Example 12]”, the pIC50 at human p38 kinase alpha [1] is 6.03.
Turning to “4-[2-[4-(4-fluorophenyl)-3-(4-pyridinyl)-1H-pyrazol-1-yl]ethyl]morpholine and 4-[2-[4-(4-fluorophenyl)-5-(4-pyridinyl)-1H-pyrazol-1-yl]ethyl]morpholine [Example 13]”, the pIC50 at human p38 kinase alpha [1] was 6.07.
Take `Cc1n[nH]c(-c2ccncc2)c1-c1ccccc1` [Example 1, 4-(3-methyl-4-phenyl-1H-pyrazol-5-yl)pyridine]: the melting point (in general, the temperature, or range, at which the solid turns liquid) is 164 to 165 °C. In data set [2], this molecule gave a pIC50 not above 5.00. Further, the pIC50 on human p38 kinase alpha [1] was 4.52. Further, at human p38 kinase alpha [3], the pIC50 was 4.87.
Molecule `Nc1n[nH]c(-c2ccncc2)c1-c1ccc(F)cc1` [Example 2, 4-(4-fluorophenyl)-5-(4-pyridinyl)-1H-pyrazol-3-amine] showed a melting point of 178 to 180 °C. In data set [2], this molecule gave a pIC50 of 4.97. Besides, at human p38 kinase alpha [3], the pIC50 was 5.21.
The corresponding values for `CS(=O)(=O)Nc1n[nH]c(-c2ccncc2)c1-c1ccc(F)cc1` [Example 3, N-[4 (4-fluorophenyl)-5-(4-pyridinyl)-1H-pyrazol-3-yl]methanesulfonamide] are 168 to 170 °C, less than 5.00 and 5.59.
For the molecule `CNS(=O)(=O)Nc1n[nH]c(-c2ccncc2)c1-c1ccc(F)cc1` [Example 4, N-[4-(4-fluorophenyl)-5-(4-pyridinyl)-1H-pyrazol-3-yl]-N′-methylsulfamide], the melting point fell in the range of 194 to 195 °C. The molecule further gave a pIC50 in data set [2] of 5.33. Moreover, the “mLPS (6 h @ (30 mpk))” value in the data set with serum TNF amounted to 54%. Further, the pIC50 on human p38 kinase alpha [3] was 6.64.
On to `NC(=O)Nc1n[nH]c(-c2ccncc2)c1-c1ccc(F)cc1` [Example 5, [4-(4-fluorophenyl)-5-(4-pyridinyl)-1H-pyrazol-3-yl]urea], for which the pIC50 in data set [2] was 5.26; on human p38 kinase alpha [1] it was 5.70.
As to `Cn1nc(-c2ccncc2)c(-c2ccc(Cl)cc2)c1N` [Example 7, 4-(4-chlorophenyl)-1-methyl-3-(4-pyridinyl)-1H-pyrazol-5-amine], the melting point fell in the range of 257 to 258 °C. The same molecule had a pIC50 in data set [2] not above 5.00. For the same molecule, the pIC50 at human p38 kinase alpha [3] was 5.26.
Take `CNC(=O)Nc1n[nH]c(-c2ccncc2)c1-c1ccc(F)cc1` [Example 8, N-[4-(4-fluorophenyl)-5-(4-pyridinyl)-1H-pyrazol-3-yl]-N′-methylurea]: the melting point fell in the range of 212 to 213 °C. The pIC50 in data set [2] is not above 5.00.
On to `Fc1ccc(-c2cn[nH]c2-c2ccncc2)cc1` [Example 9, 4-[4-(4-fluorophenyl)-1H-pyrazol-3-yl]pyridine], for which the pIC50 in data set [2] was 6.19; at human p38 kinase alpha [1] it was 5.61; on human p38 kinase alpha [3], 5.46. Also, the “mLPS (6 h @ (30 mpk))” value in the data set on serum TNF worked out at 42%.
In the case of `Cn1cc(-c2ccc(F)cc2)c(-c2ccncc2)n1` [Example 10, 4-[4-(4-fluorophenyl)-1-methyl-1H-pyrazol-3-yl]pyridine], the pIC50 in data set [2] was 5.80; at human p38 kinase alpha [1], 5.14; at human p38 kinase alpha [3], 6.40. For the same molecule, in the data set with serum TNF, the “mLPS (6 h @ (30 mpk))” value was found to be 76%.
With `Clc1ccc(-c2c[nH]nc2-c2ccncc2)cc1` [Example 15, 4-[4-(4-chlorcophenyl)-1H-pyrazol-3-yl]pyridine], the results for the pIC50 at human p38 kinase alpha [1] and at human p38 kinase alpha [3] were 5.23 and 6.12, respectively. Further, in the data set on serum TNF, the “mLPS (6 h @ (30 mpk))” value is 32%.
